Source: US20060264463A1, “Chemical compounds” (priority 2003, published 2006)

Each compound was assayed against T1, human H1 receptor (Homo sapiens, UniProt P35367) (assay: Histamine H1 receptor binding, competition displacement of [3H]-pyrilamine). Details: displacement of 1 nM [3H]-pyrilamine; 2 μg membranes from recombinant CHO-K1 cells expressing the human H1 receptor; 1 hour at room temperature; read-out: H1 pKi (converted).
T1 construct: purchased Euroscreen SA, Brussels, Belgium ES-390-M; host or cells: CHO-K1
T1 sequence (P35367 whole entry): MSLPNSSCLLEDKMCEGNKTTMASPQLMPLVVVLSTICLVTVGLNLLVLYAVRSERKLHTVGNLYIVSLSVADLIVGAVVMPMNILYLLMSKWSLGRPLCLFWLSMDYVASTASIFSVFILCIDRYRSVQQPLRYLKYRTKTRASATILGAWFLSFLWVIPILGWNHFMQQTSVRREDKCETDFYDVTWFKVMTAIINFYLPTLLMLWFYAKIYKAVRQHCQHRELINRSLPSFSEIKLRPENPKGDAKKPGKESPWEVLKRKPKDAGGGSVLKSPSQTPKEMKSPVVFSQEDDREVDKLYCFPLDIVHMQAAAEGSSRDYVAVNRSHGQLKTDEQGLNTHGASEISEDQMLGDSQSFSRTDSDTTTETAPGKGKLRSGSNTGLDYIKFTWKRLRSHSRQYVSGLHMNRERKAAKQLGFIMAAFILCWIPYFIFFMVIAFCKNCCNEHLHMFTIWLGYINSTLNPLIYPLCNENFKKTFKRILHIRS

Compound	Ki [nM]
Cc1cc(C(=O)O)cc(N2CCC(CN3CCC(Oc4ccc(Cl)c(Cl)c4)CC3)CC2)c1 [Example 99, 3-(4-{[4-(3,4-dichlorophenoxy)piperidin-1-yl]methyl}piperidin-1-yl)-5-methylbenzoic acid]	7.94
O=C(O)c1ccccc1N1CCC(O)(CN2CCC(Oc3ccc(Cl)c(Cl)c3)CC2)CC1 [Example 63, 2-(4-{[4-(3,4-dichlorophenoxy)piperidin-1-yl]methyl}-4-hydroxypiperidin-1-yl)benzoic acid]	50.1
Cc1cc(Cl)ccc1OC1CCN(CC2CCN(c3ccc([N+](=O)[O-])cc3C(=O)O)CC2)CC1 [Example 59, 2-(4-{[4-(4-chloro-2-methylphenoxy)piperidin-1-yl]methyl}piperidin-1-yl)-5-nitrobenzoic acid]	1.58
N#Cc1ccc(OC2CCN(CC3CCN(c4c(Cl)cccc4C(=O)O)CC3)CC2)cc1Cl [Example 48, 3-chloro-2-(4-{[4-(3-chloro-4-cyanophenoxy)piperidin-1-yl]methyl}piperidin-1-yl)benzoic acid]	79.4
Cc1cc(OC2CCN(CC3CCN(c4cc(Cl)ccc4C(=O)O)CC3)CC2)ccc1Cl [Example 74, 4-chloro-2-(4-{[4-(4-chloro-3-methylphenoxy)piperidin-1-yl]methyl}piperidin-1-yl)benzoic acid]	2.51
Cc1cc(OC2CCN(CC3CCN(c4c(F)cccc4C(=O)O)CC3)CC2)ccc1Cl [Example 68, 2-(4-{[4-(4-chloro-3-methylphenoxy)piperidin-1-yl]methyl}piperidin-1-yl)-3-fluorobenzoic acid]	15.8

Second part, the compound after the results:

Ki [nM]	Compound
10	CCOC(=O)c1cccc(N2CCC(CN3CCC(Cc4ccc(Cl)c(Cl)c4)CC3)CC2)c1 [Example 32, Ethyl 3-(4-{[4-(3,4-dichlorobenzyl)piperidin-1-yl]methyl}piperidin-1-yl)benzoate]
50.1	Cc1cc(Cl)ccc1OC1CCN(CC2CCN(c3ccccc3C(=O)O)CC2)CC1 [Example 49, 2-(4-{[4-(4-chloro-2-methylphenoxy)piperidin-1-yl]methyl}piperidin-1-yl)benzoic acid]
2.51	COC(=O)c1ccccc1N1CCC(CN2CCC(Oc3ccc(Cl)c(Cl)c3)CC2)CC1 [Example 1, methyl 2-[4-[[4-(3,4-dichlorophenoxy)-1-piperidinyl]methyl]-1-piperidinyl)-benzoate]
5.01	Cc1ccc(C(=O)O)c(N2CCC(CN3CCC(Oc4ccc(Cl)c(Cl)c4)CC3)CC2)n1 [Example 47, 2-(4-{[4-(3,4-dichlorophenoxy)piperidin-1-yl]methyl}piperidin-1-yl)-6-methylnicotinic acid]
316	COc1cccc(C(=O)O)c1N1CCC(CN2CCC(Oc3ccc(C#N)c(Cl)c3)CC2)CC1 [Example 55, 2-(4-{[4-(3-chloro-4-cyanophenoxy)piperidin-1-yl]methyl}piperidin-1-yl)-3-methoxybenzoic acid]
20	Cc1c(OC2CCN(CC3CCN(c4cccc(C(=O)O)c4)CC3)CC2)ccc(Cl)c1Cl [Example 96, 3-(4-{[4-(3,4-dichloro-2-methylphenoxy)piperidin-1-yl]methyl}piperidin-1-yl)benzoic acid]
20	O=C(O)c1cccc(N2CCC(CN3CCC(Cc4ccc(Cl)c(Cl)c4)CC3)CC2)c1 [Example 106, 3-(4-{[4-(3,4-dichlorobenzyl)piperidin-1-yl]methyl}piperidin-1-yl)benzoic acid]
10	N#Cc1ccc(OC2CCN(CC3CCN(c4cc(Cl)ccc4C(=O)O)CC3)CC2)cc1Cl [Example 36, 4-chloro-2-(4-{[4-(3-chloro-4-cyanophenoxy)piperidin-1-yl]methyl}piperidin-1-yl)benzoic acid]
631	N#Cc1ccc(OC2CCN(CC3CCN(c4ccccc4C(=O)O)CC3)CC2)cc1Cl [Example 34, 2-(4-{[4-(3-chloro-4-cyanophenoxy)piperidin-1-yl]methyl}piperidin-1-yl)benzoic acid]
